Results published in the supplement of paper PMC10307832.

Legend:
Assay in all cases: relative viability (nuclei count vs DMSO), 5 days (fraction); higher = more cells survive
SGI-1776 + Foretinib = compound: CN1CCC(CNc2ccc3ncc(-c4cccc(OC(F)(F)F)c4)n3n2)CC1 [SGI-1776] + COc1cc2c(Oc3ccc(NC(=O)C4(C(=O)Nc5ccc(F)cc5)CC4)cc3F)ccnc2cc1OCCCN1CCOCC1 [Foretinib] (partner 0.25 µM)
Method in brief: (§1)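 Relative viability was taken as the ratio of nuclei in treated wells to nuclei in vehicle wells. Lung cancer cell lines in 1536-well plates received compounds by pin tool one day after seeding, either one drug alone or a fixed anchor-drug dose plus five library-drug doses (not always all listed) in √10 steps. Nuclei were counted on 4× images after 5 days of treatment, and values are medians of duplicate plates.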

[1] = compound: C1COCCN1C2=NC(=NC3=C2OC4=C3C=CC=N4)C5=CC(=CC=C5)NC(=O)C6=CN=C(C=C6)N + COc1cc2c(Oc3ccc(NC(=O)C4(C(=O)Nc5ccc(F)cc5)CC4)cc3F)ccnc2cc1OCCCN1CCOCC1 [Foretinib] (partner 0.25 µM)
Method in brief: as §1

SGI-1776 + Luminespib = compound: CN1CCC(CNc2ccc3ncc(-c4cccc(OC(F)(F)F)c4)n3n2)CC1 [SGI-1776] + CCNC(=O)c1noc(-c2cc(C(C)C)c(O)cc2O)c1-c1ccc(CN2CCOCC2)cc1 [Luminespib] (partner 0.01 µM)
Method in brief: as §1

Entinostat + AZD7762 = compound: Nc1ccccc1NC(=O)c1ccc(CNC(=O)OCc2cccnc2)cc1 [Entinostat] + NC(=O)Nc1cc(-c2cccc(F)c2)sc1C(=O)N[C@H]1CCCNC1 [AZD7762] (partner 0.2 µM)
Method in brief: as §1

Cell Line	relative viability (SGI-1776 + Foretinib; first compound 0.08 µM)	relative viability (SGI-1776 + Foretinib; first compound 0.8 µM)	relative viability (SGI-1776 + Foretinib; first compound 2.53 µM)	relative viability (SGI-1776 + Foretinib; first compound 8 µM)	relative viability ([1]; first compound 0.02 µM)	relative viability ([1]; first compound 0.06325 µM)	relative viability ([1]; first compound 0.2 µM)	relative viability ([1]; first compound 0.6325 µM)	relative viability ([1]; first compound 2 µM)	relative viability (SGI-1776 + Luminespib; first compound 0.08 µM)	relative viability (SGI-1776 + Luminespib; first compound 0.8 µM)	relative viability (SGI-1776 + Luminespib; first compound 2.53 µM)	relative viability (SGI-1776 + Luminespib; first compound 8 µM)	relative viability (Entinostat + AZD7762; first compound 0.02 µM)	relative viability (Entinostat + AZD7762; first compound 0.06325 µM)	relative viability (Entinostat + AZD7762; first compound 0.2 µM)	relative viability (Entinostat + AZD7762; first compound 0.6325 µM)	relative viability (Entinostat + AZD7762; first compound 2 µM)
NCI-H2023	0.96	0.857	0.675	0.328	0.889	1.07	0.765	0.759	0.511	0.746	0.77	0.693	0.363					
ChaGo-K-1	0.834	0.96	0.993	0.741	0.971	1.04	0.955	0.832	0.582	0.586	0.51	0.706	0.556	0.872	0.861	0.962	0.897	0.692
COR-L 105	0.857	1.1	0.72	0.734	0.915	1.28	0.764	0.969	0.777	0.741	0.713	0.691	0.834					
NCI-H2170	0.959	1	1.02	0.987	0.953	0.843	1.05	1.07	0.68	0.723	0.669	0.668	0.419	0.876	0.878	0.825	0.602	0.193
A549	1.07	0.891	0.752	0.277	1.05	0.987	0.988	1.06	0.225									
NCI-H1993	0.819	0.761	0.688	0.695	0.879	0.837	0.732	0.723	0.665	0.882	0.964	0.676	0.652	0.777	0.741	0.69	0.468	0.366
Calu-6	0.91	0.88	0.875	0.344	1.12	0.912	0.987	0.851	0.648									
NCI-H1648														0.789	0.715	0.725	0.566	0.485
NCI-H1623	0.984	0.859	0.893	0.901	0.791	0.801	0.954	0.822	0.648	0.468	0.612	0.576	0.506					
NCI-H322M	0.93	1.07	0.859	0.683	0.919	0.918	0.935	0.849	0.686	0.999	0.901	0.881	0.635	0.591	0.64	0.958	0.731	0.621
NCI-H2405	1.07	1	0.998	0.934	0.99	1.04	1.07	1.02	0.981	0.647	0.632	0.538	0.452	0.795	0.896	0.704	0.641	0.495
